Data: patent US20250127743A1, “USE OF BRANCHED CHAIN FATTY ACIDS (BCFAS) FOR THE TREATMENT OF INTESTINAL INFLAMMATION” (priority 2021, published 2025)
Where two headings read alike, the source gives them in different places.

Assays:
[1] = test system: CACO2 cells; experiment: Luminol-based ROS detection assay in CACO2 cells; format: cell-based; details: for ROS production: 1h of incubation; for level of ROS: 5h of incubation, compared with 1h
Procedure: Luminol was dissolved in NaOH 0.1 M to obtain a 50 mM stock solution. A stock solution of 1000 U/mL HRP (HorseRadish Peroxidase) was prepared in parallel in PBS (Phosphate-Buffered Saline). After treatment with BCFAs or SCFAs or incubation in HBSS at pH 5.2, CACO2 and HeLa culture media were collected and centrifugated for 5 min at 13,000×g at room temperature. The pH of these culture media was then buffered to 7.5 to avoid pH-dependent interferences with luminol activity. Luminol (1 mM final concentration) and HRP (4 U/mL) were finally added to each culture media and luminescence was quantified immediately on a luminometer (Tecan).

[2] = test system: HeLa cells; details: HeLa cells (Kumar et al., 2009); cited from earlier work
[3] = test system: IκBα; experiment: Immunoblot of IκBα levels in TNFα-stimulated CACO2 cells; format: cell-based; details: 1 hour pre-incubation with 5 mM, then 30 min 100 ng/mL TNFα
Procedure: (§1) Before treatments, cell culture medium was replaced by HBSS (Hanks' Balanced Salt Solution; Sigma). Cells were then treated as indicated in the text and directly lysed with Laemmli buffer. For BCFAs and SCFAs treatments, 100 mM stock solutions in water were first prepared from the corresponding acidic form (e.g. isobutyric acid) or from the sodium salt of the corresponding basic form (e.g. sodium isobutyrate) and then further diluted in cell culture media (HBSS). When needed, the pH of cell culture medium was set using either 0.1 M NaOH or 0.1 M HCl solution. […] For TNFα treatments, CACO2 cells were first incubated with BCFAs or SCFAs for 1 hour and then incubated with 100 ng/mL recombinant human TNFα (PeproTech). For immunoblotting and qRT-PCR analyses, cells were lysed after 30 min or 1h of incubation with TNFα, respectively. For Transepithelial electrical resistance (TEER) measurements, cells were incubated for 24 h with TNFα. Viability of cells incubated with HBSS at various pH or with BCFAs was assessed using the CellTiter-Glo® luminescent cell viability assay (Promega), according to the manufacturer's protocol.
(§2) Cell lysates and protein extracts from intestinal tissues in Laemmli buffer were boiled for 5 min, sonicated and protein content was resolved using SDS-polyacrylamide gel electrophoresis. Proteins were then transferred on PVDF membranes (GE Healthcare) and detected after incubation with specific antibodies using ECL Clarity Western blotting Substrate (BioRad). […] Quantifications of proteins were performed on a ChemiDoc Imaging System (Bio-rad). SUMO2/3-conjugated proteins levels (above 50 kDa), SUMO1-conjugated protein levels (above 50 kDa), and other specific protein levels were normalized either by the level of total proteins above 50 kDa (determined using the TGX-stain free imaging technology; Bio-rad) or by the level of actin in each lysate.

[4] = test system: proteins conjugated to SUMO2/3 in CACO2 cells; experiment: Immunoblot quantification of SUMO2/3-conjugated proteins (above 50 kDa) in CACO2 cells; format: cell-based; details: CACO2 cells
Procedure: (§3) CACO2 and HeLa cells were cultivated in Minimum Essential Medium (MEM) (Eurobio) supplemented with 2 mM L-Glutamine (Invitrogen), 10% Fetal Bovine Serum (FBS, Eurobio), non-essential aminoacids (Sigma), 1 mM sodium pyruvate (Gibco) and a mixture of penicillin (10000 U/mL) and streptomycin (10 mg/mL). […] CACO2 and T84 cells were seeded in wells at a density of 1.1×10^5 cells/cm^2 and 1.7×10^5 cells/cm^2, respectively, the day before incubation with BCFAs or SCFAs.
as §1, §2

[5] = test system: cullin-1 neddylation in HeLa cells; details: HeLa cells (Kumar et al., 2007; Kumar et al., 2009); cited from earlier work
[6] = test system: IEC-6 intestinal epithelial cells; details: IEC-6 intestinal epithelial cells (Kumar et al., 2009); cited from earlier work
[7] = pH and acid/base forms of BCFA in HBSS medium; format: physicochemical; details: 5 mM added to HBSS medium
Procedure: as §1
BCFAs are weak organic acids, which exist in solution either as acidic (R—COOH) or basic (R—COO^−) forms.

[8] = test system: DSS-treated mice; experiment: Fecal calprotectin in DSS mouse model of colitis; format: in vivo; details: 2% DSS in drinking water 7 days, 150 mM in drinking water, 3 days after the end of DSS
Procedure: Eight-weeks-old C57Bl/6JRj male mice (Janvier Labs, Le-Genest-Saint-Isle, France) were housed at 23° C. (5 animals/cage) with a 12-h light-dark cycle in regular open cages. All animals were fed with a non-sterilized standard rodent diet (3430.PM.S10, Serlab, France). Drinking water was not sterilized. Animals were acclimatized to the animal facility for 1 week before experimentations. To monitor the effect of BCFAs on chemically-induced intestinal inflammation, animals were split in three groups (8 animals/group): one group had no treatment, one group was treated with DSS (Dextran Sulfate Sodium, MB Biomedicals, France; 2% in drinking water) from D4 to D11 to induce colitis and one group was treated both with sodium isobutyrate (150 mM in drinking water, pH 7.4; from DO to D13) and DSS (D4 to D11). Fecal pellets were weighted and resuspended in 600 μL of PBS with 1% protease and phosphatase inhibitors (Sigma-Aldrich, USA). After a centrifugation step (12000×g, 15 min, 4° C.), calprotectin was quantified in the obtained supernatants using the S100A8 DuoSet® kit (R&D Systems, Minneapolis), according to the manufacturer's protocol.

[9] = test system: DSS-treated mice; experiment: Colonic permeability (Lucifer yellow flux, Ussing chambers) in DSS mouse model of colitis; format: in vivo; details: 2% DSS in drinking water 7 days, 150 mM in drinking water, three days after the end of DSS
Procedure: Eight-weeks-old C57Bl/6JRj male mice (Janvier Labs, Le-Genest-Saint-Isle, France) were housed at 23° C. (5 animals/cage) with a 12-h light-dark cycle in regular open cages. All animals were fed with a non-sterilized standard rodent diet (3430.PM.S10, Serlab, France). Drinking water was not sterilized. Animals were acclimatized to the animal facility for 1 week before experimentations. To monitor the effect of BCFAs on chemically-induced intestinal inflammation, animals were split in three groups (8 animals/group): one group had no treatment, one group was treated with DSS (Dextran Sulfate Sodium, MB Biomedicals, France; 2% in drinking water) from D4 to D11 to induce colitis and one group was treated both with sodium isobutyrate (150 mM in drinking water, pH 7.4; from DO to D13) and DSS (D4 to D11). Colon samples were cut along the mesenteric border. Colonic permeability was assessed by measuring Lucifer yellow (440 Da; Sigma-aldrich) fluxes in Ussing chambers with an exchange surface of 0.07 cm2 (Harvard Apparatus, Holliston, MA). Lucifer yellow (250 μg/ml) was added to the mucosal side. After 3 h at 37° C., medium from the serosal side was removed and the fluorescence level of Lucifer yellow (excitation: 428 nm; emission: 540 nm) was quantified.

[10] = test system: proteins conjugated to SUMO2/3 in T84 cells; experiment: Immunoblot of SUMO2/3-conjugated proteins in T84 cells; format: cell-based; details: 5 mM, 1h of incubation
Procedure: as §3
Before treatments, cell culture medium was replaced by HBSS (Hanks' Balanced Salt Solution; Sigma). Cells were then treated as indicated in the text and directly lysed with Laemmli buffer. […] Viability of cells incubated with HBSS at various pH or with BCFAs was assessed using the CellTiter-Glo® luminescent cell viability assay (Promega), according to the manufacturer's protocol.
Cell lysates and protein extracts from intestinal tissues in Laemmli buffer were boiled for 5 min, sonicated and protein content was resolved using SDS-polyacrylamide gel electrophoresis. Proteins were then transferred on PVDF membranes (GE Healthcare) and detected after incubation with specific antibodies using ECL Clarity Western blotting Substrate (BioRad). […] Quantifications of proteins were performed on a ChemiDoc Imaging System (Bio-rad). […]

[11] = test system: IL8; experiment: qRT-PCR of IL8 mRNA in TNFα-stimulated CACO2 cells; format: cell-based; details: 1 hour pre-treatment, then 1 hour 100 ng/mL TNFα
Procedure: as §1, with “For Transepithelial electrical resistance (TEER) measurements, cells were incubated for 24 h with TNFα.” left out
(§4) Total RNAs were extracted from CACO2 cells using the RNeasy Plus Mini kit (Qiagen) following manufacturer's instructions. […] Specific cDNAs were then quantified by qPCR using Itaq Universal SYBR Green Supermix (BioRad) on a Mastercycler ep Realplex system (Eppendorf, Hamburg, Germany). […]

[12] = test system: cullin-1 neddylation in HeLa cells; experiment: Cullin-1 neddylation in HeLa cells; format: cell-based; details: 5h of incubation
Procedure: as §3, §2

[13] = test system: deSUMOylases; experiment: DeSUMOylase activity assay (SUMO-AMC cleavage) in lysates of treated CACO2 and T84 cells; format: cell-based; details: 5 mM for 5 h, cell lysates
Procedure: For in vitro cell lines, CACO2 and T84 cells grown in 12-well plates were scraped in 100 μL lysis buffer (Tris HCl pH 8.0 50 mM, EDTA 5 mM, NaCl 200 mM, Glycerol 10%, NP40 0.5%). For in vivo tissues, caecal segments were resuspended in lysis buffer (800 μL for 100 mg of tissues), mechanically lysed using bead beating and further diluted 25 times in lysis buffer. Negative controls were prepared by adding 10 mM N-ethymaleimide (NEM; Sigma-Aldrich) to cell lysates. Recombinant human SUMO1-AMC and SUMO2-AMC proteins (R&D Systems) were diluted in parallel to 500 nM in Assay buffer (Tris HCl pH 8.0 50 mM, Bovine Serum Albumin (BSA) 100 μg/mL, Dithiothreitol (DTT) 10 mM). For each measurement, 10 μL of cell or tissue lysates were mixed with 40 μL of SUMO-AMC containing Assay buffer and fluorescence (λEx=380 nm; λEm=460 nm) was recorded for 30 min at 37° C. on a Flexstation 3 microplate reader (Molecular Devices). DeSUMOylase activities were determined by calculating the initial rate of fluorescence emission in each lysate and by normalizing by the quantity of proteins in the corresponding sample, determined in parallel using BCA assays (Pierce™ BCA Protein Assay Kit).

[14] = test system: T84 cells; experiment: Intracellular pH (BCECF-AM) in T84 cells; details: 5 mM
Procedure: CACO2 and T84 cells, grown in 96-well plates were loaded with 2 μM BCECF-AM (2′,7′-Bis-(2-Carboxyethyl)-5-(and-6)-Carboxyfluorescein, Acetoxymethyl Ester; Invitrogen) for 30 min in HBSS at 37° C. […] Cells were then washed twice and incubated in HBSS with or without BCFAs or with HBSS at definite pH. Cell fluorescence (λEmission535 nm) was recorded at two different excitation wavelengths: 440 nm and 490 nm. Comparison of the ratios of fluorescence intensities (490/440 nm) was performed to detect changes in intracellular pH. Calibration solutions (with pH ranging from 4.5 to 7.5) were used as controls (Intracellular pH Calibration Buffer Kit; Molecular Probes).

[15] = test system: CACO2 cells; experiment: Transepithelial electrical resistance (TEER) of differentiated CACO2 monolayers with TNFα; format: cell-based; details: differentiated CACO2 in Transwell, 1 hour pre-treatment, then 24 hours 100 ng/mL TNFα
Procedure: CACO2 cells were seeded in Transwell inserts and cultivated for 21 days. Monolayer formation and differentiation was monitored by daily evaluation of transepithelial electrical resistance (TEER) measurement, performed with an EVOM epithelial voltohm meter equipped with “chopstick” electrodes. After three weeks, cell culture media were replaced by HBSS. Cells were then preincubated or not with isobutyric or isovaleric acids for 1 hour. 100 ng/mL TNFα was then added to both apical and basolateral compartments. TEER was evaluated after 24h of incubation.

[16] = test system: CACO2 cells; experiment: Intracellular pH (BCECF-AM) in CACO2 cells; format: cell-based; details: 5 mM
[17] = test system: SAE1/SAE2 or UBC9; experiment: Immunoblot of E1 and E2 SUMO enzyme levels in CACO2 cells; format: cell-based
Procedure: as §2

[18] = test system: CCL20; experiment: qRT-PCR of CCL20 mRNA in TNFα-stimulated CACO2 cells; format: cell-based; details: 1 hour pre-treatment, then 1 hour 100 ng/mL TNFα
Procedure: as §1, with “For Transepithelial electrical resistance (TEER) measurements, cells were incubated for 24 h with TNFα.” left out
as §4

SMILES | ROS production [1] | level of ROS [1] | TNFα-triggered degradation of IκBα [3] | concentration present as isobutyrate [7] [µM] | concentration present as isobutyric acid [7] [µM] | pH of HBSS medium after addition [7] | proportion present as isobutyrate [7] [%] | proportion present as isobutyric acid [7] [%] | ROS detection after incubation with sodium salts (basic forms) [1] | other results
CCCC(=O)O [butyric acid] | induce ROS production | less important | block |  |  |  |  |  |  | ROS production [2]: induce ROS; level of SUMO2/3-conjugated proteins ([4]; 5h, pH~5.2, 5 mM final concentration): significant increase; cullin-1 neddylation [5]: trigger the loss of cullin-1 neddylation; ROS production [6]: induce ROS
CC(C)C(=O)[O-].[Na+] [sodium isobutyrate] |  |  | not observed | ~4990 | ~10 | ~7.5 | ~99.8 | ~0.2 | no ROS were detected | level of fecal calprotectin [8]: significantly decreases; DSS-induced colonic hyperpermeability [9]: significantly decreases
CCCC(=O)[O-].[Na+] [sodium butyrate, reference compound] |  |  | not observed |  |  |  |  |  | no ROS were detected | SUMOylation pattern ([4]; pH~7.5, 5 mM final concentration): does not trigger any changes
CC(C)C(=O)O [isobutyric acid] | induce ROS production | less important | block | ~3500 | ~1500 | ~5.2 | ~72 | ~28 |  | hyperSUMOylation (SUMO2/3-conjugated proteins) [10]: hyperSUMOylation is similarly observed; IL8 mRNA expression in response to TNFα [11]: downregulate; cullin-1 neddylation [12]: triggers cullin-1 deneddylation; initial rate of SUMO deconjugation, SUMO1-AMC substrate [13]: significantly decrease; initial rate of SUMO deconjugation, SUMO2-AMC substrate [13]: significantly decrease; intracellular pH (pHi) [14]: significant decrease; level of proteins conjugated to SUMO2/3 ([4]; 5 mM, 1h or 5h of incubation): significant increase; TNFα-induced increase in epithelial permeability (TEER) [15]: block; intracellular pH (pHi) [16]: significant decrease; level of SAE1/SAE2 or UBC9 [17]: do not alter; CCL20 mRNA expression in response to TNFα [18]: downregulate
c1ccc2c(c1)[I+]c1ccccc1-2 [DPI, Diphenyleneiodonium] |  |  |  |  |  |  |  |  |  | effect of ROS scavenger preincubation on BCFAs-induced hyperSUMOylation ([4]; 30 min pre-incubation with 5 mM NAC or 10 μM DPI, then 1h 5 mM isobutyric or isovaleric acid): significantly block
